Results from US20230083012A1, “DIHYDROPYRIMIDINE DERIVATIVES AND USES THEREOF IN THE TREATMENT OF HBV INFECTION OR OF HBV-INDUCED DISEASES” (priority 2019, published 2023).
Read-outs that look alike come from different tables or passages of the source.

What was measured:
HBV = assay: Anti-HBV activity in HepG2.2.15 cells (HBV DNA in culture medium by qPCR); format: cell-based
Method in brief: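 HepG2.2.15 cells in 2% FBS medium at 37 °C were treated with compounds for 6 days, with medium and compound refreshed at day 3; 1:3 dilutions, 8 concentrations in triplicate, top 10 or 1 uM. HBV DNA in culture medium quantified by qPCR to derive EC50; CC50 from parallel plates (top 100 uM).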

[1] = Cytotoxicity determination in HepG2.2.15 cells (CCK-8 cell viability); format: cell-based; settings: human, 6 days treatment, CCK-8 assay, highest concentration 100 uM
Method in brief: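 HepG2.2.15 cells seeded at 5,000 cells/well in 2% FBS medium, exposed 6 days to compounds (8-point 1:3 dilutions from 100 uM, triplicate), refreshed at day 3. Viability read by CCK-8 after 2.5 h at 37° C, absorbance 450 nm with 630 nm reference; CC50 calculated.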

[2] = Hepatitis B virus, HepG2.2.15, 144 h, HepG2.2.15 cells, 6 days treatment, HBV DNA in culture medium quantified by real-time PCR, read-out: EC50

SMILES	EC50 (HBV; [2]) [nM]	CC50 at 6 days [1] [nM]	EC50 (HBV; Hepatitis B virus, HepG2.2.15, 144 h) [nM]	EC50 (HBV; HepG2.2.15 cells, 6 days treatment, HBV DNA in culture medium quantified by real-time PCR, read-out: EC50) [nM]
COC(=O)C1=C(CN2CC[C@]3(F)C(=O)N(CC(C)(C)C(=O)O)C[C@H]23)NC(c2nccs2)=N[C@H]1c1ccc(F)c(F)c1Cl (single isomer, unassigned) [Compound 209A, 3-((cis)-1-((6-(2-chloro-3,4-difluorophenyl)-5-(methoxycarbonyl)-2-(thiazol-2-yl)-3,6-dihydropyrimidin-4-yl)methyl)-3a-fluoro-4-oxohexahydropyrrolo[3,4-b]pyrrol-5(1H)-yl)-2,2-dimethylpropanoic acid]	19.1	23300	–	–
CCOC(=O)C1=C(CN2CC[C@]3(F)C(=O)N(CCC(C)(C)C(=O)O)C[C@H]23)NC(c2nccs2)=N[C@H]1c1cccc(F)c1C (single isomer, unassigned) [Compound 210B]	97.7	48700	–	–
CCOC(=O)C1=C(CN2CC(F)(F)C3C(=O)N(CC(C)(C)C(=O)O)C[C@@H]32)NC(c2nccs2)=N[C@@H]1c1ccc(Cl)c(F)c1 (single isomer, unassigned) [Compound 211, 3-((cis)-1-((6-(4-chloro-3-fluorophenyl)-5-(ethoxycarbonyl)-2-(thiazol-2-yl)-3,6-dihydropyrimidin-4-yl)methyl)-3,3-difluoro-4-oxohexahydropyrrolo[3,4-b]pyrrol-5(1H)-yl)-2,2-dimethylpropanoic acid]	36	> 50000	–	–
CCOC(=O)C1=C(CN2CCC3(F)C(=O)N(CC(C)(C)C(=O)O)CC23)NC(c2nccs2)=N[C@H]1c1cccc(F)c1C (stereo in doubt) [Compound 3, 3-((cis)-1-(((S)-5-(ethoxycarbonyl)-6-(3-fluoro-2-methylphenyl)-2-(thiazol-2-yl)-3,6-dihydropyrimidin-4-yl)methyl)-3a-fluoro-4-oxohexahydropyrrolo[3,4-b]pyrrol-5(1H)-yl)-2,2-dimethylpropanoic acid]	20.2	63100	–	–
CCOC(=O)C1=C(CN2CC(F)(F)C3C2CCN3CC(=O)O)NC(c2nccs2)=N[C@H]1c1cccc(F)c1C (stereo in doubt) [Compound 6, 2-((cis)-4-(((S)-5-(ethoxycarbonyl)-6-(3-fluoro-2-methylphenyl)-2-(thiazol-2-yl)-3,6-dihydropyrimidin-4-yl)methyl)-6,6-difluorohexahydropyrrolo-[3,2-b]pyrrol-1(2H)-yl)acetic acid]	10.4	37200	–	–
CCOC(=O)C1=C(CN2CC(F)(F)C3CN(C(=O)C(C)(C)C(=O)O)CC32)NC(c2nccs2)=N[C@H]1c1cccc(F)c1C (stereo in doubt) [Compound 9, (cis)-3-(1-(((S)-5-(Ethoxycarbonyl)-6-(3-fluoro-2-methylphenyl)-2-(thiazol-2-yl)-3,6-dihydropyrimidin-4-yl)methyl)-3,3-difluorohexahydropyrrolo[3,4-b]pyrrol-5(1H)-yl)-2,2-dimethyl-3-oxopropanoic acid]	41.7	76300	–	–
CCOC(=O)C1=C(CN2CC(F)(F)C3CN(CC(C)(C)C(=O)O)CC32)NC(c2nccs2)=N[C@H]1c1cccc(F)c1C (stereo in doubt) [Compound 12, (cis)-3-(1-(((S)-5-(ethoxycarbonyl)-6-(3-fluoro-2-methylphenyl)-2-(thiazol-2-yl)-3,6-dihydropyrimidin-4-yl)methyl)-3,3-difluorohexahydropyrrolo[3,4-b]pyrrol-5(1H)-yl)-2,2-dimethylpropanoic acid]	32.4	56700	–	–
CCOC(=O)C1=C(CN2CC(F)(F)C3CN(C(C)C(=O)O)CC32)NC(c2nccs2)=N[C@H]1c1cccc(F)c1C (stereo in doubt) [Compound 14, 2-((cis)-1-(((S)-5-(Ethoxycarbonyl)-6-(3-fluoro-2-methylphenyl)-2-(thiazol-2-yl)-3,6-dihydropyrimidin-4-yl)methyl)-3,3-difluorohexahydropyrrolo[3,4-b]pyrrol-5(1H)-yl)propanoic acid]	137	> 100000	–	–
CCOC(=O)C1=C(CN2CC(F)(F)C3CN(CC(C)C(=O)O)CC32)NC(c2nccs2)=N[C@H]1c1cccc(F)c1C (stereo in doubt) [Compound 15, 3-((cis)-1-(((S)-5-(ethoxycarbonyl)-6-(3-fluoro-2-methylphenyl)-2-(thiazol-2-yl)-3,6-dihydropyrimidin-4-yl)methyl)-3,3-difluorohexahydropyrrolo[3,4-b]pyrrol-5(1H)-yl)-2-methylpropanoic acid]	60.3	> 100000	–	–
CCOC(=O)C1=C(CN2CC(F)(F)[C@@H]3[C@H]2CN(C(=O)C(F)(F)F)N3CCC(C)(C)C(=O)O)NC(c2nccs2)=N[C@H]1c1cccc(F)c1C (stereo in doubt) [Compound 71, 4-((cis)-4-(((S)-5-(ethoxycarbonyl)-6-(3-fluoro-2-methylphenyl)-2-(thiazol-2-yl)-3,6-dihydropyrimidin-4-yl)methyl)-6,6-difluoro-2-(2,2,2-trifluoroacetyl)hexahydropyrrolo[3,2-c]pyrazol-1(2H)-yl)-2,2-dimethylbutanoic acid]	–	20900	29	–
CCOC(=O)C1=C(CN2CC(F)(F)C3C2CCN3CC(C)(C)C(=O)O)NC(c2nccs2)=N[C@H]1c1cccc(F)c1C (stereo partly drawn) [Compound 1, 3-(4-(((S)-5-(ethoxycarbonyl)-6-(3-fluoro-2-methylphenyl)-2-(thiazol-2-yl)-3,6-dihydropyrimidin-4-yl)methyl)-6,6-difluorohexahydropyrrolo[3,2-b]pyrrol-1(2H)-yl)-2,2-dimethylpropanoic acid]	10.6	24800	–	–
CCOC(=O)C1=C(CN2CC(F)(F)C3CC(C(=O)O)CC32)NC(c2nccs2)=N[C@H]1c1cccc(F)c1C (stereo partly drawn) [Compound 2, (cis)-1-(((S)-5-(ethoxycarbonyl)-6-(3-fluoro-2-methylphenyl)-2-(thiazol-2-yl)-3,6-dihydropyrimidin-4-yl)methyl)-3,3-difluorooctahydrocyclo-penta[b]pyrrole-5-carboxylic acid]	4.1	26700	–	–
CCOC(=O)C1=C(CN2CCC3C(=O)N(CC(C)(C)C(=O)O)C(=O)C32)NC(c2nccs2)=N[C@H]1c1cccc(F)c1C (stereo partly shown) [Compound 4]	56.4	47800	–	–
CCOC(=O)C1=C(CN2CC(F)(F)C3C(=O)N(CC(C)(C)C(=O)O)CC32)NC(c2nccs2)=N[C@H]1c1cccc(F)c1C (stereo partly shown) [Compound 5]	22.7	90100	–	–
CCOC(=O)C1=C(CN2CC(F)C3C2CCN3CC(C)(C)C(=O)O)NC(c2nccs2)=N[C@H]1c1cccc(F)c1C (stereo partly drawn) [Compound 11, 3-(4-(((S)-5-(ethoxycarbonyl)-6-(3-fluoro-2-methylphenyl)-2-(thiazol-2-yl)-3,6-dihydropyrimidin-4-yl)methyl)-6-fluorohexahydropyrrolo[3,2-b]pyrrol-1(2H)-yl)-2,2-dimethylpropanoic acid]	70.3	37300	–	–
CCOC(=O)C1=C(CN2CC(F)(F)C3CN(CC(C)(C)C(=O)O)C(=O)C32)NC(c2nccs2)=N[C@H]1c1cccc(F)c1C (stereo partly shown) [Compound 13]	8.4	50000	–	–
CCOC(=O)C1=C(CN2CC(F)(F)C3CN(CC4(C(=O)O)CC4)CC32)NC(c2nccs2)=N[C@H]1c1cccc(F)c1C (stereo partly shown) [Compound 16]	112	37200	–	–
CCOC(=O)C1=C(CN2CCC3C(=O)N(CC(C)(C)C(=O)O)CC32)NC(c2nccs2)=N[C@H]1c1cccc(F)c1C (stereo partly shown) [Compound 25]	95.2	95500	–	–
CCOC(=O)C1=C(CN2CC(F)(F)C3C2CCN3NCC(C)(C)C(=O)O)NC(c2nccs2)=N[C@H]1c1cccc(F)c1C (stereo partly shown) [Compound 27]	42	13900	–	–
CCOC(=O)C1=C(CN2CC(F)(F)C3C2CN(C(C)=O)N3CCC(C)(C)C(=O)O)NC(c2nccs2)=N[C@H]1c1cccc(F)c1C (stereo partly drawn) [Compound 70, 4-(2-acetyl-4-(((S)-5-(ethoxycarbonyl)-6-(3-fluoro-2-methylphenyl)-2-(thiazol-2-yl)-3,6-dihydropyrimidin-4-yl)methyl)-6,6-difluorohexahydropyrrolo[3,2-c]pyrazol-1(2H)-yl)-2,2-dimethylbutanoic acid]	8.1	27100	–	–
CCOC(=O)C1=C(CN2CC(F)(F)[C@H]3[C@@H]2CN(C(C)=O)N3CCC(C)(C)C(=O)O)NC(c2nccs2)=N[C@H]1c1cccc(F)c1C [Compound 70A, 4-((cis)-2-Acetyl-4-(((S)-5-(ethoxycarbonyl)-6-(3-fluoro-2-methylphenyl)-2-(thiazol-2-yl)-3,6-dihydropyrimidin-4-yl)methyl)-6,6-difluorohexahydropyrrolo[3,2-c]pyrazol-1(2H)-yl)-2,2-dimethylbutanoic acid]	–	> 50000	–	35
CCOC(=O)C1=C(CN2CC(F)(F)C3C2CN(C(C)=O)N3CCC(CC)C(=O)O)NC(c2nccs2)=N[C@H]1c1cccc(F)c1C (stereo partly shown) [Compound 78]	49	70300	–	–
CCOC(=O)C1=C(CN2CC(F)C3C(=O)N(CC(C)(C)C(=O)O)CC32)NC(c2nccs2)=N[C@H]1c1cccc(F)c1C (stereo partly drawn) [Compound 186, 3-((cis)-1-(((S)-5-(ethoxycarbonyl)-6-(3-fluoro-2-methylphenyl)-2-(thiazol-2-yl)-3,6-dihydropyrimidin-4-yl)methyl)-3-fluoro-4-oxohexahydropyrrolo[3,4-b]pyrrol-5(1H)-yl)-2,2-dimethylpropanoic acid]	8.9	66900	–	–
